Here are results for three molecules from patent US20240368145A1, “METHODS FOR TREATING CANCER” (IMMUNIC AG, priority 2021, published 2024).

Holding throughout (assay type): cell-based
The subject of one experiment is KLK3 mRNA. The experiment is described as follows: Expression of AR target genes (qRT-PCR) in 22Rv1: KLK3. Particulars: 22Rv1, 1 μM, 48h; relative to vehicle control (DMSO). The method, then: (§1) The prostate cancer cell line 22Rv1 was treated for 48h with 1 μM Example compound 1, 1/1, 2/1, 2/2, 2/3, 2/4, 2/5, 2/6, 2/7, 2/8, 2/9 and 2/10 and reference compounds SR2211 and XY018. RNA was extracted using the RNA isolation kit XS (Macherey-Nagel) and following the manufacture's manual. RNA quantity was measured with the Nanodrop before reverse transcription using Superscript II (Invitrogen #100004925). For the quantitative real-time PCR with SYBR-Green (Qiagen #204074), the following primers were used:
(§2) qRT-PCR was performed using SYBR-Green (Qiagen #204074) reagents in a PCR cycler (Gorbett Research) Rotor Gene RG3000 with the following program: denaturation for 5′ at 95° C.; 40 cycles of 20″ at 95° C. and 15″ at 60° C.″ and at the end of the last cycle, the melting temperature of the products was determined by gradually increasing from 60° C. to 99° C. CT values from all samples were normalized to reference (housekeeping) genes using the mean CT value of the GAPDH and YWHAZ (reference genes). Next the values are put relative to the untreated control (vehicle/DMSO).

The next experiment relates to NKX3.1 mRNA. The experiment is described as follows: Expression of AR target genes (qRT-PCR) in 22Rv1: NKX3.1. The conditions noted are these: Homo sapiens; 22Rv1, 1 μM, 48h; relative to vehicle control (DMSO). The method, then: as §1, §2
On the technique in general: Real-time PCR tracks product formation cycle by cycle.

The next experiment has as its system FKBP5 mRNA. The experiment is described as follows: Expression of AR target genes (qRT-PCR) in 22Rv1: FKBP5. The conditions noted are these: Homo sapiens; 22Rv1, 1 μM, 48h; relative to vehicle control (DMSO). Here is the method: as §1, §2
A further experiment deals with ATAD2/ANCCA mRNA. The experiment is described as follows: Expression of AR target genes (qRT-PCR) in 22Rv1: ATAD2/ANCCA. The conditions noted are these: 22Rv1, 1 μM, 48h; relative to vehicle control (DMSO). Here is the method: as §1, §2
The test system of experiment [1] is more than 75 representative cancer cell lines. Briefly: Oncolead profiling in a panel of more than 75 cancer cell lines. Particulars: FIG. 1 and FIG. 2. Here is the method:
The compound of Example 1 and Example 1/1 was tested in vitro in more than 75 representative cancer cell lines at Oncolead (www.oncolead.com) according their standard procedure. The obtained data is summarised in FIG. 1 (Example 1) and FIG. 2 (Example 1/1).

Another experiment has as its system NOMO1 (AML). Briefly: Oncotest inhibition of viability, NOMO1. Particulars: Homo sapiens, NOMO-1; AML cell line NOMO1; read-out: IC50 range.
Another experiment relates to CCRFCEM (ALL). Briefly: Oncotest inhibition of viability, CCRFCEM. Particulars: Homo sapiens, CCRF-CEM; ALL cell line CCRFCEM; read-out: IC50 range.
For a further experiment, the system named is AML cell line HL-60. Briefly: CellTiter-Blue proliferation assay, HL-60. Particulars: Homo sapiens, geometric mean relative IC50, 72 hours, read-out: IC50 range for cell line HL-60. Here is the method:
(§3) Aim of this study was to evaluate compounds of Example 1, 1/1, 2/2, 2/5 and 2/6 in a proliferation assays. The 5 test compounds were tested in a CellTiter-Blue® based proliferation assay in three AML cell lines (HL-60, THP-1 and MOLM-13). The compounds were tested at 10 concentrations in half-log increments (highest concentration 30 μM or 100 μM) in duplicates. The incubation period with the applied compounds was fixed to 72 hours.
For orientation: Resazurin is reduced to fluorescent resorufin, in cell work by metabolically active cells.

A further experiment concerns LP1 (MM). The experiment is described as follows: Oncotest inhibition of viability, LP1. Particulars: MM cell line LP1; read-out: IC50 range.
For a further experiment, the system named is NCIH929 (MM). The experiment is described as follows: Oncotest inhibition of viability, NCIH929. The conditions noted are these: Homo sapiens, NCI-H929; MM cell line NCIH929; read-out: IC50 range.
The next experiment deals with U937 (NHL). Briefly: Oncotest inhibition of viability, U937. The conditions noted are these: Homo sapiens, U-937; NHL cell line U937; read-out: IC50 range.
In a further experiment the test system is OCIAML2 (AML). Briefly: Oncotest inhibition of viability, OCIAML2. The conditions noted are these: Homo sapiens, OCI-AML2; AML cell line OCIAML2; read-out: IC50 range.
For another experiment, the system named is RPMI8226 (MM). The experiment is described as follows: Oncotest inhibition of viability, RPMI8226. The conditions noted are these: Homo sapiens, RPMI-8226; MM cell line RPMI8226; read-out: IC50 range.
In a further experiment the test system is JURKAT (ALL). The experiment is described as follows: Oncotest inhibition of viability, JURKAT. Particulars: Homo sapiens; ALL cell line JURKAT; read-out: IC50 range.
For the next experiment, the system named is MV411 (AML). The experiment is described as follows: Oncotest inhibition of viability, MV411. Particulars: Homo sapiens, MV4-11; AML cell line MV411; read-out: IC50 range.
Another experiment deals with RAJI (NHL). Briefly: Oncotest inhibition of viability, RAJI. Particulars: Homo sapiens; NHL cell line RAJI; read-out: IC50 range.
Another experiment has as its system KG1 (AML). The experiment is described as follows: Oncotest inhibition of viability, KG1. Particulars: AML cell line KG1; read-out: IC50 range.
The subject of a further experiment is PL21 (AML). The experiment is described as follows: Oncotest inhibition of viability, PL21. Particulars: PL-21; AML cell line PL21; read-out: IC50 range.
The next experiment relates to MOLT4 (ALL). The experiment is described as follows: Oncotest inhibition of viability, MOLT4. The conditions noted are these: Homo sapiens, MOLT-4; ALL cell line MOLT4; read-out: IC50 range.
Experiment [2] is described as follows: Viability and differentiation in different solid cancer cell lines. Particulars: range over HEK293, A2780, MT3, MCF7, NCIH460, A-375, HCT15, HT1080.
The next experiment has as its system KCL22 (CML). The experiment is described as follows: Oncotest inhibition of viability, KCL22. The conditions noted are these: Homo sapiens, KCL-22; CML cell line KCL22; read-out: IC50 range.
The test system of the next experiment is AML cell line THP-1. Briefly: CellTiter-Blue proliferation assay, THP-1. The conditions noted are these: Homo sapiens, geometric mean relative IC50, 72 hours, read-out: IC50 range for cell line THP-1. The method, then:
as §3

For the next experiment, the system named is K562 (CML). The experiment is described as follows: Oncotest inhibition of viability, K562. The conditions noted are these: Homo sapiens; CML cell line K562; read-out: IC50 range.
In a further experiment the test system is AML cell line MOLM-13. Briefly: CellTiter-Blue proliferation assay, MOLM-13. The conditions noted are these: Homo sapiens, geometric mean relative IC50, 72 hours, read-out: IC50 range for cell line MOLM-13. The method, then:
as §3

The next experiment relates to L363 (MM). The experiment is described as follows: Oncotest inhibition of viability, L363. Particulars: Homo sapiens, L-363; MM cell line L363; read-out: IC50 range.

The structures appear in SMILES notation.

Take `CC(C)(O)CCn1ncc(-c2onc(-c3c(F)cccc3Cl)c2-c2ncccn2)c1C(F)(F)F` [2/8]: the “KLK3 mRNA expression” value in the experiment on KLK3 mRNA was 1.152. The values for the mrna remaining at 1 µM in the experiment on NKX3.1 mRNA and in the experiment with FKBP5 mRNA were 29.3% and 38.1%, respectively. Also, the “ATAD2/ANCCA mRNA expression” value in the experiment with ATAD2/ANCCA mRNA was 0.817.
On to `COC(=O)c1c(-c2c(F)cccc2Cl)noc1-c1cnn(-c2cccc(Cl)c2)c1C(F)(F)F` [Example 1, Methyl 3-(2-chloro-6-fluorophenyl)-5-(1-(3-chlorophenyl)-5-(trifluoromethyl)-1H-pyrazol-4-yl)isoxazole-4-carboxylate], for which the “in vitro anticancer activity (Z-score panel, words)” value in experiment [1] is reported as “exhibits an in vitro anticancer activity towards a broad spectrum of therapeutic cancer indication”. In addition, the IC50 (usually the point on the concentration scale where inhibition reaches its midpoint) with NOMO1 (AML) was 100 to 1000 nM; in the experiment with CCRFCEM (ALL), 10 to 100 nM; in the experiment with AML cell line HL-60 it was < 10 nM; with LP1 (MM), 10 to 100 nM; in the experiment with NCIH929 (MM), < 10 nM; in the experiment on U937 (NHL), 10 to 100 nM. The IC50 in the experiment with OCIAML2 (AML) was 10 to 100 nM; in the experiment with RPMI8226 (MM), < 10 nM; in the experiment with JURKAT (ALL) it was < 10 nM; with MV411 (AML), < 10 nM; in the experiment on RAJI (NHL), < 10 nM; in the experiment with KG1 (AML), < 10 nM. Also, the concentration for half-maximal inhibition (IC50) with PL21 (AML) is 100 to 1000 nM; with MOLT4 (ALL) it was < 10 nM; in experiment [2] it was 1 to 25 nM; in the experiment on KCL22 (CML), 10 to 100 nM; in the experiment with AML cell line THP-1, 10 to 100 nM; in the experiment with K562 (CML), ≥ 1000 nM. For the same molecule, the concentration for half-maximal inhibition (IC50) in the experiment on AML cell line MOLM-13 and in the experiment with L363 (MM) was < 10 nM throughout.
As to `Fc1cccc(Cl)c1-c1noc(-c2cnn(-c3cccc(Cl)c3)c2C(F)(F)F)c1-c1nccs1` [Example 1/1], the “in vitro anticancer activity (Z-score panel, words)” value in [1] is recorded as “exhibits an in vitro anticancer activity towards a broad spectrum of therapeutic cancer indication”. In addition, the half-inhibitory concentration (IC50) with AML cell line HL-60 was < 10 nM; in experiment [2] it was 1 to 25 nM; in the experiment with AML cell line THP-1, < 10 nM; in the experiment on AML cell line MOLM-13, < 10 nM.
